Laboratory results from ChEMBL document CHEMBL1146040, “Lactones from a brown alga endophytic fungus (No. ZZF36) from the South China Sea and their antimicrobial activities” (2006).
In brackets after ≈: the same amount, converted by molar mass.

Key:
Escherichia coli = assay: Antibacterial activity against Escherichia coli ATCC 25922; format: functional
Salmonella enteritidis = assay: Antibacterial activity against Salmonella enteritidis ATCC 13076; format: functional, Salmonella enterica subsp. enterica serovar Enteritidis; conditions: Salmonella enterica
Bacillus subtilis = assay: Antibacterial activity against Bacillus subtilis ATCC 6633; format: functional
Candida albicans = assay: Antifungal activity against Candida albicans ATCC 10231; format: functional
Fusarium oxysporum = assay: Antifungal activity against Fusarium oxysporum f.sp.cubense; format: functional
Staphylococcus aureus = assay: Antibacterial activity against Staphylococcus aureus ATCC 27154; format: functional

| Molecule | MIC (Escherichia coli) [µg/mL] | MIC (Salmonella enteritidis) [µg/mL] | MIC (Bacillus subtilis) [µg/mL] | MIC (Candida albicans) [µg/mL] | MIC (Fusarium oxysporum) [µg/mL] | MIC (Staphylococcus aureus) [µg/mL] |
| --- | --- | --- | --- | --- | --- | --- |
| CC1CCCCCCCc2cc(O)cc(O)c2C(=O)O1 (configuration not stated) | > 100 | 12.5 (≈ 44.9 µM) | 12.5 (≈ 44.9 µM) | 100 (≈ 359 µM) | 50 (≈ 180 µM) | 6.25 (≈ 22.5 µM) |
| CC1(C)S[C@@H]2[C@H](NC(=O)[C@H](N)c3ccccc3)C(=O)N2[C@H]1C(=O)O [AMPICILLIN] | 6.25 (≈ 17.9 µM) | 50 (≈ 143 µM) | 100 (≈ 286 µM) | – | – | > 100 |
| CC1CC(O)CCCCCc2cc(O)cc(O)c2C(=O)O1 (configuration not stated) | > 100 | > 100 | > 100 | > 100 | > 100 | 100 (≈ 340 µM) |
| CC1CCC(=O)CCCCc2cc(O)cc(O)c2C(=O)O1 (configuration not stated) | > 100 | > 100 | > 100 | > 100 | > 100 | > 100 |
| NYSTATIN | – | – | – | 1.56 | 3.12 | – |
| COc1c(Br)c(O)c(Br)c2c1C(=O)OC(C)CCCCCCC2 (configuration not stated) | > 100 | > 100 | 6.25 (≈ 13.9 µM) | > 100 | 12.5 (≈ 27.8 µM) | > 100 |
| COc1cc(O)cc2c1C(=O)O[C@@H](C)CCCCCCC2 [LASIODIPLODIN] | > 100 | > 100 | 50 (≈ 171 µM) | > 100 | 100 (≈ 342 µM) | 25 (≈ 85.5 µM) |
| COc1cc(OC(C)=O)cc2c1C(=O)OC(C)CCCCCCC2 (configuration not stated) | > 100 | > 100 | > 100 | > 100 | > 100 | > 100 |
